# US20070082066A1, “Use of zeaxanthin to reduce light hyper-sensitivity, photophobia, and medical conditions relating to light hyper-sensitivity” (priority 2003, published 2007)
# How the values were obtained:
# Assay type in all cases: in vivo, human
# skin = assay: Indoor tests with medical-grade ultraviolet lamp, before-and-after minimal erythemal dosages; settings: high-dosage zeaxanthin, winter season
# Description: (§1) Therefore, a patent application entitled “Protection Against Sunburn and Skin Problems with Orally-Ingested High-Dosage Zeaxanthin”, was drafted and filed in the autumn of 2002, as a provisional application, based on anecdotal evidence from several people. […] After those test data became available, the provisional patent application on sunburn prevention was expanded into a utility application.
# [1] = Safety and tolerability in users taking zeaxanthin for macular degeneration; settings: 20 mg/day, thousands of users over the past few years
# Description: If no results are noticed at that level within about 2 to 4 weeks, the person can try a somewhat higher dosage during the next 2-4 weeks.
# sunburns = assay: Summertime exposure to direct sunlight, sunburn protection; settings: oral, about 30 to about 80 mg/day, summer of 2002, direct sunlight
# Description: Instead, this discovery arose out of observations that were made while zeaxanthin was being tried and evaluated by a number of people, to determine whether it could help protect the skin against sunburns. Because of various factors and events described in a separate patent application (Ser. No. 10/356,134, Gierhart et al; the contents of that application are incorporated herein by reference, as though fully set forth herein), the founder of ZeaVision (who is also one of the Inventors herein) became convinced that relatively high dosages of zeaxanthin, in the range of about 30 mg or greater per day, could increase the skin's ability to withstand direct sunlight without suffering a sunburn. Accordingly, several coworkers began taking zeaxanthin at dosages in a range of about 30 to about 80 mg/day, during the summer of 2002, to provide additional evaluation of the earliest results that had been seen.
# as §1
# light hyper-sensitivity = assay: Customer and user reports on light hyper-sensitivity after taking zeaxanthin
# Description: When asked about it by the Applicants herein, they offered answers that were usually along the lines of, “I hadn't noticed that. But yeah, you're right. I haven't been wearing my sunglasses as much as I used to. I just don't feel like I need them as much, or as often.”
# At roughly the same time, the customer service specialist at ZeaVision also began to receive sporadic comments from people who had purchased zeaxanthin capsules to treat or prevent macular degeneration.
# These discoveries led the customer support staff at ZeaVision to begin routinely asking customers about light hyper-sensitivity, if they called in and wanted to discuss the visual improvements they were enjoying after they began taking zeaxanthin.
# [2] = system: migraine or other severe headaches; assay: Customer reports on frequency of migraine or other severe headaches; settings: a number of customers with migraine or recurrent headaches; zeaxanthin at 10 mg or more per day
smiles,measurement,setting,value
CC1=C(/C=C/C(C)=C/C=C/C(C)=C/C=C/C=C(C)/C=C/C=C(C)/C=C/C2=C(C)C[C@@H](O)CC2(C)C)C(C)(C)C[C@H](O)C1 [zeaxanthin],skin-protective effects (minimal erythemal dosages before and after),skin,strongly confirmed the skin-protective effects
same,safety and tolerability,[1],safe and well-tolerated
same,risk of sunburns,sunburns,can indeed reduce the risk of sunburns
same,"light hyper-sensitivity, volunteered consumer comments","light hyper-sensitivity; consumers who purchased zeaxanthin capsules to treat or prevent macular degeneration, after vs before taking",suffering less from light hyper-sensitivity
same,use of sunglasses when driving or outdoors,"light hyper-sensitivity; high-dosage zeaxanthin, several people working with ZeaVision, family members and friends, spring of 2003",had stopped using their sunglasses so much
same,"unusual and unpleasant levels of light sensitivity, routine customer questioning","light hyper-sensitivity; nearly all of the roughly 30% of customers who reported light sensitivity, after they began taking zeaxanthin capsules",less severe and less troubling
same,light sensitivity evaluated separately from vision clarity,"light hyper-sensitivity; nearly all patients who had reported increased light sensitivity, zeaxanthin at 10 mg or more per day","improved, significantly"
same,frequency of migraine or other severe headaches,[2],didn't seem to be having as many migraine or other severe headaches
